Article PMC7923228, “Phosphoinositide 3-Kinase (PI3K) Reactive Oxygen Species (ROS)-Activated Prodrug in Combination with Anthracycline Impairs PI3K Signaling, Increases DNA Damage Response and Reduces Breast Cancer Cell Growth” (International Journal of Molecular Sciences, 2021)
Values joined by “and” are separate entries in the source; they are usually repeats but may differ in a detail not shown here. Equal entries are not always repeated. Where two headings read alike, the source gives them in different places.

Assays:
[1] = tested on: p-AKT, p-P53, p-CHK1, p-CHK2 in MDA-MB-231, MDA-MB-361 and MDA-MB-453 cells; format: cell-based, Human; details: for phosphorylation of AKT at Thr308: data not shown; for phosphorylation of CHK2 at T68: most notably in MDA-MB-361 and MDA-MB-453 versus vehicle control, 24 h
Description: Cells were lysed in RIPA buffer (Thermo Fisher Scientific, Waltham, MA, USA, Cat#BP-115) supplemented with protease and phosphatase inhibitors (Thermo Fisher Scientific, Cat#88669). […] Peroxidase-conjugated secondary antibodies (Santa Cruz Biotechnology) were used and protein signals were detected using Pierce ECL western blotting substrate (Thermo Fisher Scientific, Cat# 32106).

MDA-MB-361 cells [2] = tested on: MDA-MB-361 cells
Description: (§1) Growth kinetics of fibroblasts, MCF10A, MDA-MB-231, MDA-MB-361 and MDA-MB-453 cells was determined by the 4,5-dimethylthiazol-2-yl)-2,5-diphenyltetrazolium bromide (MTT) assay. Briefly, 2 × 10^4 cells/well were seeded in 96 well plates in triplicate. […] MDA-MB-231 cells were treated with 500–5000 nM, MDA-MB-361 with 50–450 nM and MDA-MB-453 with 100–4000 nM of doxorubicin for 72 h. […] MDA-MB-231 cells were treated with 50–50,000 pM docetaxel. MDA-MB-361 cells were treated with 10–90 nM of docetaxel. MDA-MB-453 cells were subjected 50–10,000 pM of docetaxel. The cell proliferation was analyzed after 72 h and represented as mean of triplicate values relative to DMSO control.

MDA-MB-231 cells [3] = tested on: MDA-MB-231 cells
Description: as §1

MDA-MB-453 cells [4] = test: MTT cell viability assay, 72 h
Description: as §1

[5] = tested on: MCF10A, MDA-MB-231, MDA-MB-361 and MDA-MB-453 cells; test: Intracellular ROS, DCFDA assay; format: cell-based; details: 125 nM, 30 min
Description: The cells were resuspended in dichlorodihydrofluorescein diacetate (DCFH-DA) for 30 min […] using the CellQuest software v4.0.1 (Becton Dickinson and Company, Franklin Lakes, NJ, USA) to measure the ROS levels. The DCFH-DA levels were measured using a SPECTRAmax PLUS Microplate Spectrophotometer Plate Reader (Molecular Devices Corporation).

MDA-MB-453 cells [6] = tested on: MDA-MB-453 cells
Description: as §1

MDA-MB-361 cells [7] = test: cells; details: Homo sapiens, MDA-MB-361, 72 h
Description: as §1

MDA-MB-231 cells [8] = test: MTT cell viability assay, 72 h
Description: as §1

MCF10A cells = test: cells; format: cell-based; details: for IC50: 72 h MTT
Description: as §1

NH fibroblasts = test: cells; format: cell-based
PI3Kɣ = tested on: PI3Kɣ; set-up: method as in PMID 19584227; details: read-out: IC50 against PI3Kɣ; cited from earlier work
[9] = tested on: PIK3CA-mutated, hormone receptor (HR)-positive, HER2-negative advanced breast cancer; set-up: method as in PMID 31091374; details: cited from earlier work
[10] = tested on: MDA-MB-231, MDA-MB-361 and MDA-MB-453 cells; test: MTT cell viability assay, combination treatments, 72 h; format: cell-based, Human
Description: as §1

COc1cccc2c1C(=O)c1c(O)c3c(c(O)c1C2=O)C[C@@](O)(C(=O)CO)C[C@@H]3O[C@H]1C[C@H](N)[C@H](O)[C@H](C)O1 [Doxorubicin]
p53 phosphorylation at Ser15 [1]: didn’t observe p53 post-translational modification activation | phosphorylation of AKT at Thr308 [1]: no effect | phosphorylation of CHK2 at T68 [1]: increased phosphorylation | IC50 (MDA-MB-361 cells [2]): 111 nM and 110 nM and 73.2 nM | IC50 (MDA-MB-231 cells [3]): 185 nM and 146 nM | IC50 (MDA-MB-453 cells [4]; Homo sapiens, MDA-MB-453, 72 h, read-out: IC50 (MDA-MB-453)): 578 nM | ROS levels [5]: induced ROS | IC50 (MDA-MB-453 cells [6]): 530 nM and 516 nM and 478 nM | IC50 (MDA-MB-361 cells [7]; read-out: IC50 (MDA-MB-361)): 116 nM | IC50 (MDA-MB-231 cells [8]; Homo sapiens, MDA-MB-231, 72 h, read-out: IC50 (MDA-MB-231)): 405 nM

CC(=O)N[C@@H](CS)C(=O)O [NAC, N-Acetyl Cysteine]
rescue of antiproliferative effects of RIDR-PI-103 and doxorubicin (MDA-MB-231 cells [8]; MDA-MB-231, 10 mM NAC, 125 nM doxorubicin ± 30 µM RIDR-PI-103, 24 hour): rescued the antiproliferative effects

Oc1cccc(-c2nc(N3CCOCC3)c3oc4ncccc4c3n2)c1 [PI-103, 3-(4-morpholinopyrido[3′,2′:4,5]furo[3,2-d]pyrimidin-2-yl)phenol]
IC50 (MCF10A cells; Homo sapiens, MCF-10A): 3800 nM | IC50 (MDA-MB-453 cells [4]; Homo sapiens, MDA-MB-453, 72 h): 820 nM | IC50 (NH fibroblasts; Fibroblast, fibroblasts, 72 h MTT): 3900 nM | IC50 (MDA-MB-361 cells [7]): 1700 nM | IC50 (PI3Kɣ): 15 nM

Cc1nc(NC(=O)N2CCC[C@H]2C(N)=O)sc1-c1ccnc(C(C)(C)C(F)(F)F)c1 [alpelisib, Alpelisib]
improvement of progression-free survival compared with fulvestrant alone ([9]; alpelisib in combination with fulvestrant, patients who had received endocrine therapy previously): about 5 months | adverse events ([9]; patients receiving alpelisib): high risk of hyperglycemia-related adverse events

CC(=O)O[C@@]12CO[C@@H]1C[C@H](O)[C@@]1(C)C(=O)[C@H](O)C3=C(C)[C@@H](OC(=O)[C@H](O)[C@@H](NC(=O)OC(C)(C)C)c4ccccc4)C[C@@](O)([C@@H](OC(=O)c4ccccc4)[C@H]21)C3(C)C [docetaxel]
suppression of breast cancer cell growth in combination with RIDR-PI-103 ([10]; docetaxel + 10, 15 or 30 µM RIDR-PI-103, 72 h): less effective

ROS-induced drug release 3-(4-morpholinopyrido[3′,2′:4,5]furo[3,2-d]pyrimidin-2-yl)phenol [RIDR-PI-103]
phosphorylation of AKT at Thr308 [1]: no effect | phosphorylation of CHK2 at T68 [1]: increased phosphorylation | response to treatment (growth) (MCF10A cells; 50 µM or greater, 72 h): did not respond appreciably | IC50 (MCF10A cells): 78600 nM | IC50 (MDA-MB-361 cells [2]; MDA-MB-361, 72 h MTT): 43000 nM | IC50 (MDA-MB-453 cells [4]; MDA-MB-453, 72 h MTT): 49000 nM and 49100 nM | response to treatment (growth) (NH fibroblasts; normal fibroblasts, 50 µM or greater, 72 h): did not respond appreciably | effect on cytotoxicity of doxorubicin ([10]; 10, 15 and 30 µM RIDR-PI-103, MDA-MB-231, MDA-MB-361 and MDA-MB-453): enhances the cytotoxicity | growth inhibition ([10]; three breast cancer cell lines, 50 µM or greater, 72 h): showed growth inhibition | IC50 (MDA-MB-231 cells [8]; MDA-MB-231, 72 h MTT): 47300 nM
